Test results from patent publication US8722745B2, “Sulfur-containing compound, method of preparation and pharmaceutical uses thereof” (National Sun Yat-Sen University, priority 2007, dated 2014).

How the values were obtained:
[1] = test system: multiple sclerosis (EAE); test: Multiple sclerosis (EAE) animal model, neural function score; type: in vivo
Procedure: Female Lewis rats weighted between 280 to 300 g were used in the multiple sclerosis (MS, also called Encephalomyelitis; EAE) model (Boulerne et al, J Neurosci. 2002; 22:123-32, 2004). The animals were anesthetized with 2.5% isoflurane, and 50 μL of Complete Freund's Adjuvant (Sigma) containing 1 mg inactivated Mycobacterium tuberculosis H37Ra and 50 μg guinea pig myelin basic protein (MBP) was subcutaneous injected from the posterior paw for 100% immunizing In the control group, the rats were injected with Freund's complete adjuvant containing inactivated Mycobacterium tuberculosis H37Ra and without guinea pig myelin basic protein. The ill was observed on day 11 to 12 after immunization, and reached the peak on day 14 to 15.
The neural function was assessed on day 15. The scores represents: 0: no clinical symptom; 1: function loss in the tail; 2: partial paralysis in the posterior limbs; 3: complete paralysis in the posterior limbs; 4: paralysis in the four limbs; 5: complete paralysis in the whole body; 6: death (Liu et al. J Neuroimmunol. 2003; 139:27-35, 1998).
The rats were divided into four groups, and each group containing four animals: • Control group: Rats were subcutaneous injected from the posterior paw with Freund's complete adjuvant containing inactivated Mycobacterium tuberculosis H37Ra and without guinea pig myelin basic protein. 20 μL of normal saline was administered through the intrathecal catheter twice a day for five days from day 7. • Multiple sclerosis group: Rats were subcutaneous injected from the posterior paw with Freund's complete adjuvant containing inactivated Mycobacterium tuberculosis H37Ra and guinea pig myelin basic protein. 20 μL of normal saline was administered through the intrathecal catheter twice a day for five days from day 7. • Multiple sclerosis with treatment group: Rats were subcutaneous injected from the posterior paw with Freund's complete adjuvant containing inactivated Mycobacterium tuberculosis H37Ra and guinea pig myelin basic protein. […]

[2] = test system: inducible nitric oxide synthase; test: Protein expression of inducible nitric oxide synthase in LPS-stimulated RAW 264.7 macrophages (Western blot); type: cell-based, mouse
Procedure: (§1) A mouse macrophage cell line, RAW 264.7, purchased from the American Type Culture Collection (ATCC , No TIB-71) was chosen in the in vitro model. The cells were cultured in DMEM (Dulcbecco/s Modified Eagle medium) containing 10% fetal bovine serum (FBS) and penicillin G (100 U/mL) and streptomycin (100 μg/mL) at 37° C. and 5% CO2. When reaching 80% confluence, the cells were subcultured with trypsin. The cells were subjected to an anti-inflammation assay after subcultured for 36 hours. 3×10^6 RAW264.7 cells were cultured in a 10-cm culture dish and administered with lipopolysaccharide (LPS, 0.01 μg/mL; Sigma L2654). After 16 hours, the cells were collected. […]
(§2) The collected RAW264.7 cells were dissolved with 200 μL of 4° C. lysis buffer (50 mM Tris [pH 7.5], 150 mM NaCl, 1% TritonX-100, 0.1 mM EDTA, 0.1 mM EGTA, 10 μg PMSF, 1 μg/mL aprotinin, 20 mM NaF, and 0.2 mM Na3VO4). […] The supernatant was assayed with Bio-Rad DC protein assay kit (Bio-Rad Laboratories, Hercules, Calif., USA) and the absorbance was read with an ELISA reader (Thermo Electron Corporation, USA) for estimating the protein contents. […] After washed with TTBS for three times, an enhanced chemiluminescence detection kit was used for reading with the PVDF membrane and exposed with an X-ray film (Kodak X-OMAT LS, Kodak, Rochester, N.Y., USA) for detecting the protein expression. […]

[3] = test system: cyclooxygenase-2; test: Protein expression of cyclooxygenase-2 in LPS-stimulated RAW 264.7 macrophages (Western blot); type: cell-based, mouse
Procedure: as §1, §2

[4] = test system: β-actin; test: Protein expression of β-actin (internal control) in LPS-stimulated RAW 264.7 macrophages; type: cell-based, mouse; settings: 50 μM compound
Procedure: as §1, §2

[5] = test system: thermal hyperalgesia after sciatic nerve chronic constriction injury; test: Neuropathic pain model, sciatic nerve chronic constriction injury, thermal hyperalgesia; type: in vivo, rat
Procedure: The operation was performed according to the description of Wen et al, Brain Res 963:1-7, 2003. The dura mater of male Wistar rats was opened near the foramen magnum and planted with an 8.5-cm PE tube (outer diameter: 0.014 inches, inner diameter: 0.008 inches). The drugs worked near the lumbar, and the end of injection was fixed on the head. Animals those had deficient in motor or blood in the intrathecal catheter were abandoned.
The model was established similar to the sciatic nerve chronic constriction injury (CCI) established by Bennett and Xie (Pain 33:87-107, 1988). 4-O cat cut line was used to tie four nodes on the sciatic nerve. After one week, the behavior of thermal hyperalgesia was stimulated. The behavior of thermal hyperalgesia was assayed similar to the method established by Hargreaves et al (Pain 32:77-88, 1988) and recorded with an analgesiometer (IITC Inc., Woodland Hills, Calif., USA) for assessing the effect of the compound represented by formula 3 on neuropathic pain relief.
MPE(%)=(latency after drug administered−basal latency)/(30 seconds−basal latency)×100%
If a higher MPE was obtained, the effect of pain relief was better, and the maximum value of MPE was 100.

[6] = test system: neointimal proliferation of the carotid artery; test: Atherosclerosis model in rat, balloon-induced angioplasty of carotid artery; type: in vivo
Procedure: The operation was performed according to the references of Berger et al (Atherosclerosis 175:229-234, 2004) and Chen et al (Naunyn Schmiedebergs Arch Pharmacol 368:127-133, 2003). The animals were anesthetized with 2.5% isoflurane (mixed air and oxygen of 1:1) with a 2F probe balloon catheter. The catheter was pre-filled with saline solution and positioned from the external carotid artery of the right neck into the right common carotid artery. When the catheter entered about 1.5 cm of the right common carotid artery, the balloon was inflated and rubbed forward and backward three times. Then, the catheter was removed and the external carotid artery was ligated and the incision was sutured. […] The samples were observed under an optical microscopy and photoed. The thickness of neointimal proliferation was determined. The right side of each rat was taken as the experiment group and the left side was as the control group.
In the experiment group, the compound represented by formula 3 was administered.

Structure (SMILES): CC(=O)CCS(=O)(=O)CCO [formula 3]
- neural function score (0-6), multiple sclerosis with treatment group ([1]; 10 μg/20 μL intrathecal twice a day for five days from day 7, assessed on day 15, female Lewis rats): 0.5±0.3
- progress of multiple sclerosis ([1]; administered through the intrathecal catheter): significantly represses the progress of multiple sclerosis
- neural function score (0-6), normal rats with treatment group ([1]; normal rats, 10 μg/20 μL intrathecal twice a day for five days from day 7): 0
- inhibition of inducible nitric oxide synthase of macrophages ([2]; 10 to 30 μM compound, LPS 0.01 μg/mL): significantly inhibits
- IC50 ([2]; RAW 264.7 macrophages stimulated by LPS 0.01 μg/mL, 16 hours, protein expression, read-out: 50% inhibition concentration (IC50), inducible nitric oxide synthase): 3.64 ± 0.28 µM
- inhibition of cyclooxygenase-2 of macrophages ([3]; 5 to 30 μM compound, LPS 0.01 μg/mL): significantly inhibits
- IC50 ([3]; RAW 264.7 macrophages stimulated by LPS 0.01 μg/mL, 16 hours, protein expression): 32.1 ± 8.1 µM
- effect on protein expression of β-actin [4]: inhibits the protein expression of β-actin
- 50% effective dose (ED50) calculated from MPE ([5]; intrathecal injection, CCI rats, paw withdrawal latency): 0.75 ± 0.05 µg
- thermal hyperalgesia inhibition ([5]; intrathecal injections of 0.1, 0.5, 1, or 5 μg): significant effect on thermal hyperalgesia inhibition
- neointimal proliferation (preliminary result) ([6]; administered once a day): significantly improved
- atherosclerosis, numeralized intima/media ([6]; hypodermic injection 3 mg/kg a day from day 10 to 24 after operation): improves atherosclerosis significantly
- neointimal proliferation stimulated by balloon-induced angioplasty ([6]; hypodermic injection 3 mg/kg a day from day 10 to 24 after operation, slices on day 24): improves the neointimal proliferation
